Assays:
T47D-LTED cells = test: IncuCyte Annexin V apoptosis assay, T47D-LTED; type: cell-based, human; conditions: CSS medium, 48 h; 5 µM
Experimental: MCF7AC1 and T47D-LTED cells were plated at a density of 2000 cells per well in CSS medium for 24 h. Cells were then co-treated for 48 h with vehicle or drug, IncuCyte Annexin V green reagent (#4642, 1:300), an early-stage apoptosis marker, and IncuCyte NucLight rapid red reagent (#4717, 1:500), a dye that stains all cell nuclei red, in CSS medium. MCF7AC1^caAKT cells were plated at a cell density of 2000 cells per well in CSS medium in the absence or presence of cumate for 48 h and then co-treated with vehicle or drug, Annexin V green and NucLight rapid red reagents in the absence or presence of cumate for an additional 48 h in CSS medium.
Supplementary Figure 6. […] Cell viability is assessed by the crystal violet assay. b, MCF7AC1 cells were co-treated with vehicle control or 0.01, 0.1 and 5 µM MK-2206 and IncuCyte Annexin V green and NucLight rapid red reagents in CSS medi um for 48 hours. […]
Cells were plated at a density of 2000 cells per well. c, MCF7AC1 cells were treated with vehicle control or 0.01, 0.1 and 5 µM MK-2206 in CSS medium for 24 hours. […] Cell viability is assessed by the crystal violet assay. f, Parental T47D and T47D-LTED cells were processed for protein lysates. […] Percentage of cells undergoing apoptosis was calculated as mentioned in b. i, T47D-LTED cells were treated with vehicle control or 0.01, 0.1 and 5 µM MK -2206 in CSS medium for 24 hours . […]

[1] = system: AKT phosphorylation in T47D cells; test: Immunoblot of AKT phosphorylation, serum starved T47D; type: cell-based, human; conditions: not at 0.01 or 0.10 µM
Experimental: The ENDX hydrochloride utilized in this study was synthesized in collaboration between Mayo Clinic and National Institute of Health (NIH). Estrogen deprived MCF7AC1 were treated with vehicle control or ENDX (National Cancer Institute) for 24 h. For the phorbol 12-myristate 13-acetate (PMA) (LC Laboratories, #P-1680) experiments, MCF7AC1 cells were maintained in serum-free medium for 24 h prior to pretreatment with vehicle or ENDX for 2 h followed by treatment with 20 or 200 nM PMA for 20 min. For the insulin (Sigma-Aldrich, #I0516) experiments, MCF7AC1 and T47D cells were maintained in serum-free medium for 24 h prior to pretreatment with vehicle control or drugs for 2 h followed by treatment with 100 nM insulin for 1 h.
Protein lysates were prepared using the RIPA lysis buffer system (ChemCruz #sc-24948) and quantified using the DC^TM Protein Assay reagents (Bio-Rad #5000112). Equal amounts of protein lysates were separated on 10% Criterion gels (Bio-Rad #3450112), transferred to PVDF membranes (Bio-Rad #1620177), blocked in TBST-5% milk and probed with primary antibodies listed in Supplementary Table 5, at the indicated dilutions. Membranes were incubated with HRP-conjugated anti-rabbit (CST #7074) or anti-mouse (CST #7076) secondary antibodies and visualized using chemiluminescent West Pico (Thermo Scientific #34580) or West Femto (Thermo Scientific #34096) reagents and a Li-Cor Odyssey® XF imager. […] Quantitation of the protein bands signal intensity was performed using the NIH ImageJ image analysis software (https://imagej.nih.gov/ij///index.html). For the quantitation of the phospho protein levels, we first normalized total protein levels to β-actin loading control and used these values to normalize the phospho protein levels and compared change in protein expression levels relative to vehicle control normalized to 1.0. For the quantitation of total protein levels, we normalized the total protein levels to β-actin and compared change in expression levels relative to vehicle control normalized to 1.0. […]

PKC mu (PKCm/PRKD1) = PKC mu (PKCm/PRKD1) (Homo sapiens, UniProt Q15139); test: In vitro kinase assay, PKC mu; type: biochemical; conditions: 10 μM ATP
PKC mu (PKCm/PRKD1), sequence (Q15139 whole entry): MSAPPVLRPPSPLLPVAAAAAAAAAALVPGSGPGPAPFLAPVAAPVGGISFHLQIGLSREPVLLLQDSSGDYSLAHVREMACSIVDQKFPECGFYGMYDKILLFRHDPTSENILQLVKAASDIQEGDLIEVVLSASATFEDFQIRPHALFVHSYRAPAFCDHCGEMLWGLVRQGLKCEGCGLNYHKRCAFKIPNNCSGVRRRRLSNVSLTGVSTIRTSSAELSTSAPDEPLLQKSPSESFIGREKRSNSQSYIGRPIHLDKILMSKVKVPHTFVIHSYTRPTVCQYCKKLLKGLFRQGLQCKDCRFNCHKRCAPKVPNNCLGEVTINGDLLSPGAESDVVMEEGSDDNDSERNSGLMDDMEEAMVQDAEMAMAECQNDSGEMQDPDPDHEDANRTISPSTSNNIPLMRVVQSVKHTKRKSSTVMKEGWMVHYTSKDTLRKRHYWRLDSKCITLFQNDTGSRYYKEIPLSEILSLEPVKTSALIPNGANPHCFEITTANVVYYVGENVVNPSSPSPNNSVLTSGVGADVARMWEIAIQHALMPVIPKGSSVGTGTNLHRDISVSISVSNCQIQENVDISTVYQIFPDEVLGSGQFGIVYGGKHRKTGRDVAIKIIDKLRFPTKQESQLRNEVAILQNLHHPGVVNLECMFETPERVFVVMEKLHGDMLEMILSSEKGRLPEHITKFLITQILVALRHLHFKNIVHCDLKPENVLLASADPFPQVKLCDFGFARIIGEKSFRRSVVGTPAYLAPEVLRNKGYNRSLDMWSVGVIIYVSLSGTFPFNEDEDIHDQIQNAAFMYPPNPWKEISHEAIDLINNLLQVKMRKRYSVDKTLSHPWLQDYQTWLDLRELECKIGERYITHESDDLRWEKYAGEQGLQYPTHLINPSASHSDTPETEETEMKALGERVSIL
Source text: Supplementary Table 4. In vitro kinase assay showing the IC 50 concentration of ENDX and
of the 12 PKC family members.
(1 picture or pasted object on this page, not shown here)

MCF7AC1 xenograft tumors = test: Immunoblot of MCF7AC1 xenograft tumor lysates after in vivo treatment; parameters: species or system mice; conditions: four weeks
Experimental: Protein lysates were prepared using the RIPA lysis buffer system (ChemCruz #sc-24948) and quantified using the DC^TM Protein Assay reagents (Bio-Rad #5000112). Equal amounts of protein lysates were separated on 10% Criterion gels (Bio-Rad #3450112), transferred to PVDF membranes (Bio-Rad #1620177), blocked in TBST-5% milk and probed with primary antibodies listed in Supplementary Table 5, at the indicated dilutions. Membranes were incubated with HRP-conjugated anti-rabbit (CST #7074) or anti-mouse (CST #7076) secondary antibodies and visualized using chemiluminescent West Pico (Thermo Scientific #34580) or West Femto (Thermo Scientific #34096) reagents and a Li-Cor Odyssey® XF imager. Protein lysates from the MCF7AC1 xenograft model were obtained from a previous study. Quantitation of the protein bands signal intensity was performed using the NIH ImageJ image analysis software (https://imagej.nih.gov/ij///index.html). For the quantitation of the phospho protein levels, we first normalized total protein levels to β-actin loading control and used these values to normalize the phospho protein levels and compared change in protein expression levels relative to vehicle control normalized to 1.0. For the quantitation of total protein levels, we normalized the total protein levels to β-actin and compared change in expression levels relative to vehicle control normalized to 1.0. All blots were processed in parallel and derived from the same experiments. Unprocessed immunoblot images are provided in Supplementary Figs. 9–13.
Supplementary Figure 2. […]
Supplementary Figure 6. […]
MK-2206 in CSS medium for 24 hours. IB assay of pAKTSer473, AKT, PARP, cleaved PARP and
β-actin. d, MCF7AC1 xenograft protein lysates were treated with the indicated drugs for four
weeks. […]
ANOVA for figs. (a), (b), (g), (h) and (i) and unpaired t test for fig. (e).

In the case of `CC/C(=C(\c1ccc(O)cc1)c1ccc(OCCNC)cc1)c1ccccc1` [ENDX, Z-endoxifen], the “Effect on apoptosis (annexin V binding, PARP1 cleavage)” value (T47D-LTED cells) is reported as “induced apoptosis”, the “Concentration blocking insulin-stimulated AKT^Ser473 phosphorylation” value [1] is reported as 5 µM and the IC50 (PKC mu (PKCm/PRKD1)) is reported as 31.6 µM. The “Effect on AKT phosphorylated substrates in tumors” value (MCF7AC1 xenograft tumors; 75 mg/kg) was “reduced the levels of AKT phosphorylated substrates”, the “Effect on AKT^Thr308 phosphorylation in tumors” value (MCF7AC1 xenograft tumors; 75 mg/kg) was “no appreciable impact on AKT^Thr308 phosphorylation” and the “Effect on AKT^Ser473 phosphorylation in tumors” value (MCF7AC1 xenograft tumors; 75 mg/kg, vs control treatment) was “attenuated AKT^Ser473 phosphorylation”. The “Dose increasing PARP cleavage in tumors” value (MCF7AC1 xenograft tumors; not at 25 mg/kg) was 75 mg/kg.
